Experimental data published in patent publication US20030229087A1 (priority 2002, published 2003).

Key:
Format in all cases: in vivo
Sphaerotheca fuliginea = assay: whole plant or invertebrate; details: for % Efficacy: in vivo
[1] = system: Erysiphe graminis f.sp. hordei; assay: Erysiphe test (barley)/protective; details: Blumeria graminis, 168 h, protective, application rate 12.5 g/ha, evaluation 7 days after inoculation, read-out: Efficacy in %
Description: Erysiphe Test (Barley)/Protective
(§1) To produce a suitable preparation of active compound, 1 part by weight of active compound or active compound combination is mixed with the stated amounts of solvent and emulsifier, and the concentrate is diluted with water to the desired concentration.
(§2) To test for protective activity, young plants are sprayed with the preparation of active compound at the stated application rate.
After the spray coating has dried on, the plants are dusted with spores of Erysiphe graminis f.sp. hordei.
(§3) The plants are placed in a greenhouse at a temperature of approximately 20° C. and a relative atmospheric humidity of approximately 80% to promote the development of mildew postules.
(§4) Evaluation is carried out 7 days after the inoculation. 0% means an efficacy which corresponds to that of the control, whereas an efficacy of 100% means that no infection is observed.

Pyrenophora teres = Pyrenophora teres test (barley)/protective; details: protective, application rate 25 g/ha, evaluation 7 days after inoculation
Description: Pyrenophora teres Test (Barley)/Protective
as §1
(§5) To test for protective activity, young plants are sprayed with the preparation of active compound at the stated application rate. After the spray coating has dried on, the plants are sprayed with a conidia suspension of Pyrenophora teres. The plants remain in an incubation cabin at 20° C. and 100% relative atmospheric humidity for 48 hours.
The plants are then placed in a greenhouse at a temperature of approximately 20° C. and a relative atmospheric humidity of approximately 80%.
as §4

Phytophthora infestans = assay: whole plant or invertebrate
Leptosphaeria nodorum = Leptosphaeria nodorum test (wheat)/protective; details: protective, application rate 25 g/ha, evaluation 10 days after inoculation
Description: Leptosphaeria nodorum Test (Wheat)/Protective
To produce a suitable preparation of active compound, 1 part by weight of active compound or active compound combination is mixed with the stated amounts of solvents and emulsifier, and the concentrate is diluted with water to the desired concentration.
as §5, with “spore” for “conidia”, “Leptosphaeria nodorum.” for “Pyrenophora teres.”
The plants are placed in a greenhouse at a temperature of approximately 15° C. and a relative atmospheric humidity of 80%.
Evaluation is carried out 10 days after the inoculation. 0% means an efficacy which corresponds to that of the control, whereas an efficacy of 100% means that no infection is observed.

[2] = system: Erysiphe graminis f.sp. tritici; assay: Erysiphe test (wheat)/protective; details: protective, application rate 6.25 g/ha, evaluation 7 days after inoculation
Description: Erysiphe Test (Wheat)/Protective
as §1, §2
After the spray coating has dried on, the plants are dusted with spores of Erysiphe graminis f.sp. tritici.
as §3, §4

[3] = Podosphaera fuliginea, in Cucumis sativus, 240 h, read-out: % Efficacy
[4] = Phytophthora infestans, in Solanum lycopersicum, 72 h, read-out: % Efficacy

N=C(N)NCCCCCCCCNCCCCCCCCNC(=N)N [(XIX) (18), N,N′″-(iminodi-8,1-octanediyl)bis-guanidine triacetate] showed a pest or weed control at 2.5 g/ha (Sphaerotheca fuliginea; [3]) of 43%.
OC(Cc1ccccc1Cl)(Cn1nc[nH]c1=S)C1(Cl)CC1 (centres unmarked) [Compound of the formula (LXX) (69), 2-(1-chloro-cyclopropyl)-1-(2-chlorophenyl)-3-(5-mercapto-1,2,4-triazol-1-yl)-propan-2-ol] gave a pest or weed control at 12.5 g/ha [1] of 90%, an Efficacy in % (Pyrenophora teres) of 70% and a pest or weed control at 5 g/ha (Phytophthora infestans; [4]) of 0%.
Cc1noc(C)c1S(=O)(=O)n1c(Cl)nc2cc3c(cc21)OC(F)(F)O3 [Compound of the formula (LXXI) (70), 1-(3,5-dimethylisoxazole-4-sulphonyl)-2-chloro-6,6-difluoro-[1,3]-dioxolo-[4,5f]benzimidazole] gave a pest or weed control at 12.5 g/ha [1] of 0%, an Efficacy in % (Leptosphaeria nodorum) of 0% and a pest or weed control at 1 g/ha (Sphaerotheca fuliginea; [3]) of 0%.
For CO/N=C(/C1=NOCCO1)c1ccccc1Oc1ncnc(Oc2ccccc2Cl)c1F [Compound of the formula (LXXII) (71)], the pest or weed control at 12.5 g/ha [1] was 0%, the Efficacy in % (Leptosphaeria nodorum) was 40% and the pest or weed control at 2 g/ha (Sphaerotheca fuliginea; [3]) was 43%.
CCC1(C(=O)NC(C)c2ccc(Cl)cc2)C(C)C1(Cl)Cl (centres unmarked) [N-[1-(4-chloro-phenyl)-ethyl]-2,2-dichloro-1-ethyl-3-methyl-cyclopropane-carboxamide] showed a pest or weed control at 5 g/ha (Sphaerotheca fuliginea; [3]) of 10%.
Compound CO/C=C(/C(=O)OC)c1ccccc1Oc1cc(Oc2ccccc2C#N)ncn1 [azoxystrobin (XVII) (16), azoxystrobin] has a pest or weed control at 1 g/ha (Sphaerotheca fuliginea; [3]) of 37%.
CCCCNC(=O)n1c(NC(=O)OC)nc2ccccc21 [benomyl (LXXXIII) (30), benomyl] gave a pest or weed control at 5 g/ha (Sphaerotheca fuliginea; [3]) of 50%.
Work on O=C1C2CC=CCC2C(=O)N1SC(Cl)(Cl)Cl (centres unmarked) [captan (LV) (54), captan] yielded a pest or weed control at 40 g/ha (Phytophthora infestans; [4]) of 0%.
Compound COC(=O)Nc1nc2ccccc2[nH]1 [carbendazim (XXXI) (30), carbendazim] has a pest or weed control at 2.5 g/ha (Sphaerotheca fuliginea; [3]) of 63%.
Cc1ccc2nc3sc(=O)sc3nc2c1 [chinomethionat] showed a pest or weed control at 20 g/ha (Phytophthora infestans; [4]) of 0%.
For [Cl-].[Cu+2].[Cu+2].[OH-].[OH-].[OH-] [copper oxychloride (LXIV) (63), copper oxychloride], the “% Efficacy” value (Sphaerotheca fuliginea) was 11%.
Cc1ccc(-c2c(Cl)nc(C#N)n2S(=O)(=O)N(C)C)cc1 [cyamidazosulfamid (LXX IV)(73), cyamidazosulfamid] showed a pest or weed control at 0.5 g/ha (Phytophthora infestans; [4]) of 45% and a pest or weed control at 1 g/ha (Sphaerotheca fuliginea; [3]) of 0%.
CCNC(=O)NC(=O)C(C#N)=NOC [cymoxanil (XLVI) (45), cymoxanil] gave a pest or weed control at 2.5 g/ha (Phytophthora infestans; [4]) of 0% and a pest or weed control at 5 g/ha (Sphaerotheca fuliginea; [3]) of 15%.
Cc1cc(C2CC2)nc(Nc2ccccc2)n1 [cyprodinil (XVIII) (17), cyprodinil] was tested, and the pest or weed control at 12.5 g/ha [1] was 0%, the Efficacy in % (Pyrenophora teres) was 0% and the pest or weed control at 10 g/ha (Sphaerotheca fuliginea; [3]) was 22%.
CC1COC(Cn2cncn2)(c2ccc(Oc3ccc(Cl)cc3)cc2Cl)O1 (centres unmarked) [difenoconazole] was tested, and the pest or weed control at 5 g/ha (Phytophthora infestans; [4]) was 5% and the pest or weed control at 5 g/ha (Sphaerotheca fuliginea; [3]) was 14%.
Work on COc1ccc(C(=CC(=O)N2CCOCC2)c2ccc(Cl)cc2)cc1OC [dimetomorph (XLV) (44), dimetomorph] yielded a pest or weed control at 1 g/ha (Phytophthora infestans; [4]) of 23% and a pest or weed control at 1 g/ha (Sphaerotheca fuliginea; [3]) of 0%.
CSC1=N[C@@](C)(c2ccccc2)C(=O)N1Nc1ccccc1 [fenamidone] showed a pest or weed control at 0.5 g/ha (Phytophthora infestans; [4]) of 48% and a pest or weed control at 0.5 g/ha (Sphaerotheca fuliginea; [3]) of 0%.
Compound CC1(C(=O)Nc2ccc(O)c(Cl)c2Cl)CCCCC1 [fenhexamid (LII) (51), fenhexamid] has a pest or weed control at 5 g/ha (Sphaerotheca fuliginea; [3]) of 10%.
For N#Cc1c[nH]cc1-c1cccc(Cl)c1Cl [fenpiclonil (XXVIII) (27), 4-(2,3-dichlorophenyl)-1H-pyrrole-3-carbonitrile], the pest or weed control at 2.5 g/ha (Sphaerotheca fuliginea; [3]) was 0%.
Work on O=[N+]([O-])c1cc(C(F)(F)F)c(Cl)c([N+](=O)[O-])c1Nc1ncc(C(F)(F)F)cc1Cl [fluazinam] yielded a pest or weed control at 2.5 g/ha (Phytophthora infestans; [4]) of 32% and a pest or weed control at 2.5 g/ha (Sphaerotheca fuliginea; [3]) of 0%.
N#Cc1c[nH]cc1-c1cccc2c1OC(F)(F)O2 [fludioxonil (XXX) (29), fludioxonil] was tested, and the pest or weed control at 12.5 g/ha [1] was 0% and the pest or weed control at 2.5 g/ha (Sphaerotheca fuliginea; [3]) was 0%.
Work on O=C1c2ccccc2C(=O)N1SC(Cl)(Cl)Cl [folpet] yielded a pest or weed control at 40 g/ha (Sphaerotheca fuliginea; [3]) of 0%.
For O=[N+]([O-])/N=C1\NCCN1Cc1ccc(Cl)nc1 [imidacloprid (XXIV) (23), 1-[(6-chloro-3-pyridinyl)-methyl]-N-nitro-2-imidazolidinimine], the pest or weed control at 12.5 g/ha [1] was 0%.
Work on CC(C)NC(=O)N1CC(=O)N(c2cc(Cl)cc(Cl)c2)C1=O [iprodione (LXV) (64), iprodione] yielded a pest or weed control at 5 g/ha (Sphaerotheca fuliginea; [3]) of 0%.
Compound Cc1ccc(C(C)NC(=O)[C@@H](NC(=O)OC(C)C)C(C)C)cc1 (some centres unmarked) [iprovalicarb (LI) (50), iprovalicarb] has a pest or weed control at 0.5 g/ha (Phytophthora infestans; [4]) of 2% and a pest or weed control at 2 g/ha (Sphaerotheca fuliginea; [3]) of 0%.
In the case of CO/N=C(/C(=O)OC)c1ccccc1COc1ccccc1C [kresoxim-methyl (XVI) (15), kresoxim-methyl], the pest or weed control at 1 g/ha (Phytophthora infestans; [4]) is reported as 35% and the pest or weed control at 2 g/ha (Sphaerotheca fuliginea; [3]) is reported as 0%.
With CC#Cc1cc(C)nc(Nc2ccccc2)n1 [mepanipyrim (L) (49), mepanipyrim] the pest or weed control at 5 g/ha (Phytophthora infestans; [4]) was 0% and the pest or weed control at 10 g/ha (Sphaerotheca fuliginea; [3]) was 11%.
In the case of COCC(=O)N(c1c(C)cccc1C)C(C)C(=O)OC (centres unmarked) [metalaxyl (XXVII)(26), metalaxyl], the pest or weed control at 1 g/ha (Sphaerotheca fuliginea; [3]) is reported as 11%.
For CC1(C)CCC(Cc2ccc(Cl)cc2)C1(O)Cn1cncn1 (centres unmarked) [metconazole (XII) (11), metconazole], the Efficacy in % [2] was 50%.
O=C(Nc1ccccc1)N(Cc1ccc(Cl)cc1)C1CCCC1 [pencycuron (XXXVIII) (37), pencycuron] was tested, and the pest or weed control at 12.5 g/ha [1] was 50%, the pest or weed control at 10 g/ha (Phytophthora infestans; [4]) was 14% and the pest or weed control at 5 g/ha (Sphaerotheca fuliginea; [3]) was 30%.
CO/C=C(/C(=O)OC)c1ccccc1COc1cccc(C(F)(F)F)n1 [picoxystrobin (LXXXIII) (82), picoxystrobin] gave a pest or weed control at 2 g/ha (Sphaerotheca fuliginea; [3]) of 0%.
CCCN(CCOc1c(Cl)cc(Cl)cc1Cl)C(=O)n1ccnc1 [prochloraz (XXI) (20), prochloraz] gave a pest or weed control at 10 g/ha (Phytophthora infestans; [4]) of 0%.
CC12CC1(C)C(=O)N(c1cc(Cl)cc(Cl)c1)C2=O (centres unmarked) [procymidone (XLII) (41), procymidone] gave a pest or weed control at 5 g/ha (Sphaerotheca fuliginea; [3]) of 0%.
Compound Cc1cc(C)nc(Nc2ccccc2)n1 [pyrimethanil (XLIX)(48), pyrimethanil] has a pest or weed control at 10 g/ha (Phytophthora infestans; [4]) of 11% and a pest or weed control at 5 g/ha (Sphaerotheca fuliginea; [3]) of 11%.
CCCN(CC)CC1COC2(CCC(C(C)(C)C)CC2)O1 (centres unmarked) [spiroxamine (II) (1), 8-t-butyl-2-(N-ethyl-N-n-propyl-amino)-methyl-1,4-dioxaspiro-[5,4]-decane] was tested, and the pest or weed control at 10 g/ha (Phytophthora infestans; [4]) was 0% and the pest or weed control at 5 g/ha (Sphaerotheca fuliginea; [3]) was 0%.
In the case of S1SSSSSSS1 [sulphur (LXII) (62), sulphur], the pest or weed control at 25 g/ha (Phytophthora infestans; [4]) is reported as 0% and the pest or weed control at 25 g/ha (Sphaerotheca fuliginea; [3]) is reported as 0%.
Compound CC(C)(C)C(O)(CCc1ccc(Cl)cc1)Cn1cncn1 (centres unmarked) [tebuconazole (IV) (3), tebuconazole] has an Efficacy in % (Leptosphaeria nodorum) of 50%, an Efficacy in % (Pyrenophora teres) of 0% and a pest or weed control at 2.5 g/ha (Sphaerotheca fuliginea; [3]) of 0%.
In the case of N#Cc1c(Cl)c(Cl)c(Cl)c(C#N)c1Cl [tetrachloro-isophthalo-dinitrile], the pest or weed control at 40 g/ha (Sphaerotheca fuliginea; [3]) is reported as 0%.
With Cc1ccc(N(SC(F)(Cl)Cl)S(=O)(=O)N(C)C)cc1 [tolylfluanid] the pest or weed control at 40 g/ha (Sphaerotheca fuliginea; [3]) was 0%.
CC(C)(C)C(=O)C(Oc1ccc(Cl)cc1)n1cncn1 (centres unmarked) [triadimefon (IX) (8), 1-(4-chloro-phenoxy)-3,3-dimethyl-1-(1,2,4-triazol-1-yl)-butan-2-one] showed a pest or weed control at 10 g/ha (Sphaerotheca fuliginea; [3]) of 0%.
CC(C)(C)C(O)C(Oc1ccc(Cl)cc1)n1cncn1 (centres unmarked) [triadimenol (X) (9), 1-(4-chloro-phenoxy)-3,3-dimethyl-1-(1,2,4-triazol-1-yl)-butan-2-ol] gave an Efficacy in % (Pyrenophora teres) of 30%, a pest or weed control at 5 g/ha (Phytophthora infestans; [4]) of 0% and a pest or weed control at 2.5 g/ha (Sphaerotheca fuliginea; [3]) of 0%.
Work on CO/N=C(/C(=O)OC)c1ccccc1CO/N=C(\C)c1cccc(C(F)(F)F)c1 [trifloxystrobin (LXXVI) (75), trifloxystrobin] yielded a pest or weed control at 2 g/ha (Sphaerotheca fuliginea; [3]) of 43%.
For C=CC1(C)OC(=O)N(c2cc(Cl)cc(Cl)c2)C1=O (centres unmarked) [vinclozolin], the pest or weed control at 5 g/ha (Sphaerotheca fuliginea; [3]) was 10%.
For CCC(C)(NC(=O)c1cc(Cl)c(C)c(Cl)c1)C(=O)CCl (centres unmarked) [zoxamide (LXXIII)(72), zoxamide], the pest or weed control at 1 g/ha (Phytophthora infestans; [4]) was 19% and the pest or weed control at 1 g/ha (Sphaerotheca fuliginea; [3]) was 0%.
dichlofluanid was tested, and the “% Efficacy” value (Sphaerotheca fuliginea) was 0%.
mancozeb [mancozeb (XLIII) (42)] was tested, and the “% Efficacy” value (Phytophthora infestans; in vivo) was 23%.
